Activity calls are given as the source filed them. No cut-off for these calls is given here.
Legend:
[1] = target: T1, Gonadotropin-releasing hormone receptor (Rattus norvegicus, UniProt P30969); experiment: Competitive radioligand binding assay, in human HEK293 cells stably transfected with the rat Gonadotropin-releasing hormone receptor; format: cell-based
T1 sequence (P30969 whole entry): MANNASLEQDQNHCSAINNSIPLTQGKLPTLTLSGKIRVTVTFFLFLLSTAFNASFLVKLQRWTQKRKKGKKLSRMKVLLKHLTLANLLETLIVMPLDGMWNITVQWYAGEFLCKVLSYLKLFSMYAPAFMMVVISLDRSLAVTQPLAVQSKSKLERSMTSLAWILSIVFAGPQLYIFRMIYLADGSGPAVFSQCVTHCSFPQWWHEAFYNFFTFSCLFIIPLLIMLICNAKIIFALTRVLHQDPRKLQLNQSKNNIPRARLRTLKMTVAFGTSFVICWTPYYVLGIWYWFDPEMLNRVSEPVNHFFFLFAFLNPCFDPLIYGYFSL

[2] = test system: Rattus norvegicus; experiment: Evaluated for the ovulation effects in the rat by administering the drug at the doses (1.0 ug); 4/4; format: functional, organism-based
[3] = test system: Rattus norvegicus; experiment: Evaluated for the ovulation effects in the rat by administering the drug at the doses (2.5 ug); 3/8; format: functional, organism-based
[4] = test system: Rattus norvegicus; experiment: Evaluated for the ovulation effects in the rat by administering the drug at the doses (25 ug); 2/5; format: functional, organism-based
[5] = test system: Rattus norvegicus; experiment: Evaluated for the ovulation effects in the rat by administering the drug at the doses (100 ug); 1/8; format: functional, organism-based
[6] = test system: Rattus norvegicus; experiment: Evaluated for the ovulation effects in the rat by administering the drug at the doses (50 ug); 2/8; format: functional, organism-based
[7] = test system: Rattus norvegicus; experiment: Evaluated for the ovulation effects in the rat by administering the drug at the doses (25 ug); 4/4; format: functional, organism-based
[8] = test system: Rattus norvegicus; experiment: Evaluated for the ovulation effects in the rat by administering the drug at the doses (5.0 ug); 4/7; format: functional, organism-based
[9] = test system: Rattus norvegicus; experiment: Evaluated for the ovulation effects in the rat by administering the drug at the doses (10 ug); 3/3; format: functional, organism-based
[10] = test system: Rattus norvegicus; experiment: Evaluated for the ovulation effects in the rat by administering the drug at the doses (250 ug); 0/6; format: functional, organism-based
[11] = test system: Rattus norvegicus; experiment: Evaluated for the ovulation effects in the rat by administering the drug at the doses (250 ug); 1/3
[12] = test system: Rattus norvegicus; experiment: Evaluated for the ovulation effects in the rat by administering the drug at the doses (0.5 ug); 5/5; format: functional, organism-based
[13] = test system: Rattus norvegicus; experiment: Evaluated for the ovulation effects in the rat by administering the drug at the doses (1.0 ug); 2/11; format: functional, organism-based
[14] = test system: Rattus norvegicus; experiment: Evaluated for the ovulation effects in the rat by administering the drug at the doses (2.5 ug); 1/8; format: functional, organism-based

`CC(=O)N[C@H](Cc1ccc2ccccc2c1)C(=O)N[C@H](Cc1ccc(Cl)cc1)C(=O)N[C@H](Cc1cccnc1)C(=O)N[C@H]1CC(=O)NC[C@@H](C(N)=O)NC(=O)[C@@H]2CCCN2C(=O)[C@@H]2CCNC(=O)[C@H](Cc3c[nH]cn3)NC(=O)CC[C@H](NC1=O)C(=O)N[C@H](CCCN=C(N)N)C(=O)N[C@@H](CC(C)C)C(=O)N2` was tested, and the Ki [1] was 0.1 nM, the Activity [2] was “inactive” and the Activity [3] was “Weak activity”.

With `CC(=O)N[C@H](Cc1ccc2ccccc2c1)C(=O)N[C@H](Cc1ccc(Cl)cc1)C(=O)N[C@H](Cc1cccnc1)C(=O)N[C@H]1CC(=O)NC[C@@H](C(N)=O)NC(=O)[C@@H]2CCCN2C(=O)[C@@H]2CCCCNC(=O)CC[C@H](NC1=O)C(=O)N[C@H](Cc1ccc3ccccc3c1)C(=O)N[C@@H](CC(C)C)C(=O)N2` the Ki [1] was 1.3 nM, the Activity [4] was “Weak activity” and the Activity [5] was “Active”. The Activity [6] was “Weak activity”.

With `CC(=O)N[C@H](Cc1ccc2ccccc2c1)C(=O)N[C@H](Cc1ccc(Cl)cc1)C(=O)N[C@H](Cc1cccnc1)C(=O)N[C@H]1CC(=O)NC[C@@H](C(N)=O)NC(=O)[C@@H]2CCCN2C(=O)[C@@H]2CCNC(=O)[C@H](Cc3ccccc3)NC(=O)C[C@H](NC1=O)C(=O)N[C@H](CCCN=C(N)N)C(=O)N[C@@H](CC(C)C)C(=O)N2` the Ki [1] was 12 nM and the Activity [7] was “inactive”.

For `CC(=O)N[C@H](Cc1ccc2ccccc2c1)C(=O)N[C@H](Cc1ccc(Cl)cc1)C(=O)N[C@H](Cc1c[nH]c2ccccc12)C(=O)N[C@H]1CC(=O)NC[C@@H](C(N)=O)NC(=O)[C@@H]2CCCN2C(=O)[C@@H]2CCCCNC(=O)CC[C@H](NC1=O)C(=O)N[C@H](Cc1ccc3ccccc3c1)C(=O)N[C@@H](CC(C)C)C(=O)N2`, the Ki [1] was 1.2 nM.

In the case of `CC(=O)N[C@H](Cc1ccc2ccccc2c1)C(=O)N[C@H](Cc1ccc(Cl)cc1)C(=O)N[C@H](Cc1cccnc1)C(=O)N[C@H]1CC(=O)NC[C@@H](C(N)=O)NC(=O)[C@@H]2CCCN2C(=O)[C@@H]2CCNC(=O)CCNC(=O)C[C@H](NC1=O)C(=O)N[C@H](CCCN=C(N)N)C(=O)N[C@@H](CC(C)C)C(=O)N2`, the Ki [1] is reported as 0.37 nM and the Activity [8] is reported as “Weak activity”.

`CC(=O)N[C@H](Cc1ccc2ccccc2c1)C(=O)N[C@H](Cc1ccc(Cl)cc1)C(=O)N[C@H](Cc1cccnc1)C(=O)N[C@H]1CC(=O)NC[C@@H](C(N)=O)NC(=O)[C@@H]2CCCN2C(=O)[C@@H]2CCNC(=O)[C@H](CCCN=C(N)N)NC(=O)CC[C@H](NC1=O)C(=O)N[C@H](Cc1cccnc1)C(=O)N[C@@H](CC(C)C)C(=O)N2` was tested, and the Ki [1] was 0.59 nM, the Activity [9] was “inactive” and the Activity [10] was “Active”. The Activity [11] was “Weak activity”.

`CC(=O)N[C@H](Cc1ccc2ccccc2c1)C(=O)N[C@H](Cc1ccc(F)cc1)C(=O)N[C@H](Cc1c[nH]c2ccccc12)C(=O)N[C@H]1CC(=O)NC(C(N)=O)NC(=O)[C@@H]2CCCN2C(=O)[C@H](CCCNC(=N)N)NC(=O)[C@H](CC(C)C)NC(=O)[C@@H](CCCNC(=N)N)NC(=O)[C@H](Cc2ccc(O)cc2)NC1=O` (some centres not stated) was tested, and the Ki ([1]; hek293) was 1.3 nM.

In the case of `CC(=O)N[C@H](Cc1ccc2ccccc2c1)C(=O)N[C@H](Cc1ccc(Cl)cc1)C(=O)N[C@H](Cc1cccnc1)C(=O)N[C@H]1CC(=O)NC[C@@H](C(N)=O)NC(=O)[C@@H]2CCCN2C(=O)[C@@H]2CCNC(=O)[C@H](CCCN=C(N)N)NC(=O)CC[C@H](NC1=O)C(=O)N[C@H](CCCN=C(N)N)C(=O)N[C@@H](CC(C)C)C(=O)N2`, the Ki [1] is reported as 0.2 nM, the Activity [12] is reported as “inactive” and the Activity [13] is reported as “Active”. For the same molecule, the Activity [14] was “Active”.

Work on `CC(=O)N[C@H](Cc1ccc2ccccc2c1)C(=O)N[C@H](Cc1ccc(F)cc1)C(=O)N[C@H](Cc1c[nH]c2ccccc12)C(=O)N[C@H]1CC(=O)NCC[C@@H](C(N)=O)NC(=O)[C@@H]2CCCN2C(=O)[C@H](CCCNC(=N)N)NC(=O)[C@H](CC(C)C)NC(=O)[C@@H](CCCNC(=N)N)NC(=O)[C@H](Cc2ccc(O)cc2)NC1=O` yielded a Ki ([1]; hek293) of 10 nM.
